Measured values: PubChem BioAssay (NCI)
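Here, GI50 denotes the concentration required for 50% inhibition of growth. The concentration for full growth arrest is given as TGI.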

Columns and labels:
Experiment in all cases: NCI-60 cell line screen, 384-well format; in the data active means GI50 below about 0.43 µM; inactive means the rest
[1] = tested on: 786-0 renal
[2] = tested on: A498 renal
[3] = tested on: A549 NSCLC
[4] = tested on: ACHN renal
[5] = tested on: BT-549 breast
[6] = tested on: CAKI-1 renal
[7] = tested on: CCRF-CEM leukemia
[8] = tested on: COLO 205 colon
[9] = tested on: DU-145 prostate
[10] = tested on: EKVX NSCLC
[11] = tested on: HCC-2998 colon
[12] = tested on: HCT-116 colon
[13] = tested on: HCT-15 colon
[14] = tested on: HL-60(TB) leukemia
[15] = tested on: HOP-62 NSCLC
[16] = tested on: HOP-92 NSCLC
[17] = tested on: HS 578T breast
[18] = tested on: HT29 colon
[19] = tested on: IGROV1 ovarian
[20] = tested on: K-562 leukemia
[21] = tested on: KM12 colon
[22] = tested on: LOX IMVI melanoma
[23] = tested on: M14 melanoma
[24] = tested on: MALME-3M melanoma
[25] = tested on: MCF7 breast
[26] = tested on: MDA-MB-231 breast
[27] = tested on: MDA-MB-435 melanoma
[28] = tested on: MDA-MB-468 breast
[29] = tested on: MOLT-4 leukemia
[30] = tested on: NCI-H226 lung
[31] = tested on: NCI-H23 lung
[32] = tested on: NCI-H322M lung
[33] = tested on: NCI-H460 NSCLC
[34] = tested on: NCI-H522 lung
[35] = tested on: NCI/ADR-RES ovarian
[36] = tested on: OVCAR-3 ovarian
[37] = tested on: OVCAR-4 ovarian
[38] = tested on: OVCAR-8 ovarian
[39] = tested on: PC-3 prostate
[40] = tested on: RPMI-8226 leukemia
[41] = tested on: RXF 393 renal
[42] = tested on: SF-268 CNS
[43] = tested on: SF-295 CNS
[44] = tested on: SF-539 CNS
[45] = tested on: SK-MEL-28 melanoma
[46] = tested on: SK-MEL-5 melanoma
[47] = tested on: SK-OV-3 ovarian
[48] = tested on: SN12C renal
[49] = tested on: SNB-19 CNS
[50] = tested on: SNB-75 CNS
[51] = tested on: SW-620 colon
[52] = tested on: T-47D breast
[53] = tested on: TK-10 renal
[54] = tested on: U251 glioblastoma
[55] = tested on: UACC-257 melanoma
[56] = tested on: UACC-62 melanoma
[57] = tested on: UO-31 renal
[58] = tested on: OVCAR-5 ovarian
[59] = tested on: SK-MEL-2 melanoma

Cn1ncc(C#N)c1-c1ccc2c(c1)CN([C@H](CN)Cc1cccc(F)c1)C2=O
31.4 µM: TGI [16]
16.3 µM: TGI [25]
active: GI50 [1] 0.324 µM | GI50 [2] 0.269 µM | GI50 [19] 0.0552 µM | GI50 [28] 0.0967 µM | GI50 [29] 0.129 µM | GI50 [44] 0.394 µM | GI50 [50] 0.299 µM | GI50 [52] 0.0502 µM
31.1 µM: TGI [55]
93.9 µM: TGI [4]
26.1 µM: TGI [40]
46.7 µM: TGI [57]
40.8 µM: TGI [6]
67.3 µM: TGI [49]
82 µM: TGI [51]
43.7 µM: TGI [20]
inactive: GI50 [3] 12.2 µM | GI50 [4] 17.3 µM | GI50 [5] 0.943 µM | GI50 [6] 5.91 µM | GI50 [7] 0.675 µM | GI50 [8] 4.91 µM | GI50 [9] 16.5 µM | GI50 [10] 11.1 µM | GI50 [11] 11 µM | GI50 [12] 10.8 µM | GI50 [13] 16.3 µM | GI50 [14] 15.9 µM | GI50 [15] 23 µM | GI50 [16] 6.45 µM | GI50 [17] 1.57 µM | GI50 [18] 4.87 µM | GI50 [20] 15.3 µM | GI50 [21] 0.841 µM | GI50 [22] 27.6 µM | GI50 [23] 11.2 µM | GI50 [24] 1.76 µM | GI50 [25] 0.498 µM | GI50 [26] 21.8 µM | GI50 [27] 15.8 µM | GI50 [30] 14.4 µM | GI50 [31] 14.6 µM | GI50 [32] 16.9 µM | GI50 [33] 0.582 µM | GI50 [34] 13.3 µM | GI50 [35] > 100 µM | GI50 [36] 11.8 µM | GI50 [37] 35.7 µM | GI50 [38] 24.3 µM | GI50 [39] 0.436 µM | GI50 [40] 12.9 µM | GI50 [41] 0.433 µM | GI50 [42] 19.2 µM | GI50 [43] 0.668 µM | GI50 [45] 3.34 µM | GI50 [46] 6.5 µM | GI50 [47] 0.534 µM | GI50 [48] 17.6 µM | GI50 [49] 13.7 µM | GI50 [51] 27.5 µM | GI50 [53] 10.1 µM | GI50 [54] 11.1 µM | GI50 [55] 12.5 µM | GI50 [56] 4.27 µM | GI50 [57] 13.4 µM
17.9 µM: TGI [5]
40.3 µM: TGI [10]
20.4 µM: TGI [21]
65.9 µM: TGI [48]
71.1 µM: TGI [15]
32.4 µM: TGI [36]
16.5 µM: TGI [43]
23.2 µM: TGI [12] | TGI [47]
42.8 µM: TGI [53]
44.9 µM: TGI [9]
19.5 µM: TGI [52]
3.28 µM: TGI [28]
19.8 µM: TGI [17] | TGI [56]
47.2 µM: TGI [11]
26.8 µM: TGI [23]
29.5 µM: TGI [14]
33.4 µM: TGI [44] | TGI [45]
33.3 µM: TGI [33]
> 100 µM: TGI [13] | TGI [22] | TGI [35] | TGI [37] | TGI [38]
11.9 µM: TGI [41]
75.1 µM: TGI [3]
21.2 µM: TGI [1]
27 µM: TGI [34]
14 µM: TGI [50]
14.6 µM: TGI [7]
43.3 µM: TGI [27]
16.7 µM: TGI [2] | TGI [39]
74.7 µM: TGI [26]
70.2 µM: TGI [32]
25.4 µM: TGI [8]
34.8 µM: TGI [31]
58.5 µM: TGI [42]
2.38 µM: TGI [29]
39.1 µM: TGI [30]
68.7 µM: TGI [54]
20 µM: TGI [46]
10.4 µM: TGI [19]
94.5 µM: TGI [18]
14.8 µM: TGI [24]

Cn1c(CCCC(=O)O)nc2cc(N(CCCl)CCCl)ccc21
33.2 µM: TGI [14]
inactive: GI50 [1] 90.6 µM | GI50 [2] > 100 µM | GI50 [3] > 100 µM | GI50 [4] 68.3 µM | GI50 [5] 57 µM | GI50 [6] 55.4 µM | GI50 [7] 17.9 µM | GI50 [9] > 100 µM | GI50 [10] > 100 µM | GI50 [12] 61.3 µM | GI50 [13] > 100 µM | GI50 [14] 17.3 µM | GI50 [15] 42 µM | GI50 [16] > 100 µM | GI50 [17] > 100 µM | GI50 [18] > 100 µM | GI50 [19] > 100 µM | GI50 [20] > 100 µM | GI50 [21] > 100 µM | GI50 [22] 88.3 µM | GI50 [23] 55.5 µM | GI50 [24] > 100 µM | GI50 [25] 71.3 µM | GI50 [26] > 100 µM | GI50 [27] > 100 µM | GI50 [28] 11.9 µM | GI50 [29] 3.2 µM | GI50 [30] 93.1 µM | GI50 [31] 60.3 µM | GI50 [32] > 100 µM | GI50 [34] 39.3 µM | GI50 [35] > 100 µM | GI50 [36] > 100 µM | GI50 [37] > 100 µM | GI50 [58] > 100 µM | GI50 [38] 69.8 µM | GI50 [39] > 100 µM | GI50 [40] 39.8 µM | GI50 [41] 41.7 µM | GI50 [42] 35.6 µM | GI50 [43] > 100 µM | GI50 [44] 50.4 µM | GI50 [59] > 100 µM | GI50 [45] > 100 µM | GI50 [47] > 100 µM | GI50 [48] 34.7 µM | GI50 [49] > 100 µM | GI50 [50] > 100 µM | GI50 [51] 72.7 µM | GI50 [52] > 100 µM | GI50 [53] > 100 µM | GI50 [54] 47.1 µM | GI50 [55] > 100 µM | GI50 [56] 31.8 µM | GI50 [57] > 100 µM
32.4 µM: TGI [7]
10.3 µM: TGI [29]
> 100 µM: TGI [1] | TGI [2] | TGI [3] | TGI [4] | TGI [5] | TGI [6] | TGI [9] | TGI [10] | TGI [12] | TGI [13] | TGI [15] | TGI [16] | TGI [17] | TGI [18] | TGI [19] | TGI [20] | TGI [21] | TGI [22] | TGI [23] | TGI [24] | TGI [25] | TGI [26] | TGI [27] | TGI [30] | TGI [31] | TGI [32] | TGI [34] | TGI [35] | TGI [36] | TGI [37] | TGI [58] | TGI [38] | TGI [39] | TGI [40] | TGI [41] | TGI [42] | TGI [43] | TGI [44] | TGI [59] | TGI [45] | TGI [47] | TGI [48] | TGI [49] | TGI [50] | TGI [51] | TGI [52] | TGI [53] | TGI [54] | TGI [55] | TGI [56] | TGI [57]
32.8 µM: TGI [28]
